# Measured values published in patent US5358951A, “Angiotensin II receptor blocking 2, 3, 6 substituted quinazolinones” (American Cyanamid Company, priority 1993, dated 1994).
# Test system: vasopressor response of angiotensin II
# Assay: AII Challenge: antagonism of angiotensin II vasopressor response;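 on Response Average Change: post-dose Angiotensin II-evoked rise in systolic blood pressure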
# Assay type: in vivo
# Conditions: for inhibition in vivo at 3 mg/kg / inhibition in vivo at 5 mg/kg: Rattus norvegicus; for inhibition in vivo at 3 mg/kg: iv; for inhibition in vivo at 5 mg/kg: po
# From the text: Conscious Male Okamoto-Aoki SHR, 16-20 weeks old, weighing approximately 330 g are purchased from Charles River Labs (Wilmington, Mass.). Conscious rats are restrained in a supine position with elastic tape. The area at the base of the tail is locally anesthetized by subcutaneous infiltration with 2% procaine. The ventral caudal artery and vein are isolated, and a cannula made of polyethylene (PE) 10-20 tubing (fused together by heat) is passed into the lower abdominal aorta and vena cava, respectively. The cannula is secured, heparinized (1,000 I.U./ml), sealed and the wound is closed. The animals are placed in plastic restraining cages in an upright position. The cannula is attached to a Statham P23 Db pressure transducer, and pulsatile blood pressure is recorded to 10-15 minutes with a Gould Brush recorder. (Chan et al., (Drug Development Res., 18:75-94, 1989). Angiotensin II (human sequence, Sigma Chem. Co., St. Louis, Mo.) of 0.05 and 0.1 ug/kg i.v. is injected into all rats (predosing response). Then a test compound, vehicle or a known angiotensin II antagonist is administered i.v., i.p. or orally to each set of rats. The two doses of angiotensin II are given to each rat again at 30, 60, 90, 120, 180, 240 and 300 minutes post dosing the compound or vehicle. The vasopressor response of angiotensin II is measured for the increase in systolic blood pressure in mmHg. The percentage of antagonism or blockade of the vasopressor response of angiotensin II by a compound is calculated using the vasopressor response (increase in systolic blood pressure) of angiotensin II of each rat predosing the compound as 100%.
# [1] = 3 mg/kg I.V., AII 0.05 mcg/kg IV, 30 min post dose
# [2] = 3 mg/kg I.V., AII 0.05 mcg/kg IV, 60 min post dose
# [3] = 3 mg/kg I.V., AII 0.05 mcg/kg IV, 90 min post dose
# [4] = 3 mg/kg I.V., AII 0.05 mcg/kg IV, 120 min post dose
# [5] = 3 mg/kg I.V., AII 0.05 mcg/kg IV, 180 min post dose
# [6] = 3 mg/kg I.V., AII 0.1 mcg/kg IV, 30 min post dose
# [7] = 3 mg/kg I.V., AII 0.1 mcg/kg IV, 60 min post dose
# [8] = 3 mg/kg I.V., AII 0.1 mcg/kg IV, 90 min post dose
# [9] = 3 mg/kg I.V., AII 0.1 mcg/kg IV, 120 min post dose
# [10] = 3 mg/kg I.V., AII 0.1 mcg/kg IV, 180 min post dose
# [11] = 5 mg/kg P.O., AII 0.05 mcg/kg IV, 30 min post dose
# [12] = 5 mg/kg P.O., AII 0.05 mcg/kg IV, 60 min post dose
# [13] = 5 mg/kg P.O., AII 0.05 mcg/kg IV, 90 min post dose
# [14] = 5 mg/kg P.O., AII 0.05 mcg/kg IV, 120 min post dose
# [15] = 5 mg/kg P.O., AII 0.05 mcg/kg IV, 180 min post dose
# [16] = 5 mg/kg P.O., AII 0.05 mcg/kg IV, 240 min post dose
# [17] = 5 mg/kg P.O., AII 0.05 mcg/kg IV, 300 min post dose
# [18] = 5 mg/kg P.O., AII 0.1 mcg/kg IV, 30 min post dose
# [19] = 5 mg/kg P.O., AII 0.1 mcg/kg IV, 60 min post dose
# [20] = 5 mg/kg P.O., AII 0.1 mcg/kg IV, 90 min post dose
# [21] = 5 mg/kg P.O., AII 0.1 mcg/kg IV, 120 min post dose
# [22] = 5 mg/kg P.O., AII 0.1 mcg/kg IV, 180 min post dose
# [23] = 5 mg/kg P.O., AII 0.1 mcg/kg IV, 240 min post dose
# [24] = 5 mg/kg P.O., AII 0.1 mcg/kg IV, 300 min post dose
# [25] = 0.5 h, 3 mg/kg I.V., AII 0.05 mcg/kg IV, 30 min post dose
# [26] = 0.5 h, 3 mg/kg I.V., AII 0.1 mcg/kg IV, 30 min post dose
# [27] = 1 h, 3 mg/kg I.V., AII 0.05 mcg/kg IV, 60 min post dose
# [28] = 1 h, 3 mg/kg I.V., AII 0.1 mcg/kg IV, 60 min post dose
# [29] = 2 h, 3 mg/kg I.V., AII 0.05 mcg/kg IV, 120 min post dose
# [30] = 2 h, 3 mg/kg I.V., AII 0.1 mcg/kg IV, 120 min post dose
# [31] = 3 h, 3 mg/kg I.V., AII 0.05 mcg/kg IV, 180 min post dose
# [32] = 3 h, 3 mg/kg I.V., AII 0.1 mcg/kg IV, 180 min post dose
# [33] = […], 3 mg/kg I.V., AII 0.05 mcg/kg IV, 90 min post dose
# [34] = […], 3 mg/kg I.V., AII 0.1 mcg/kg IV, 90 min post dose
# [35] = 0.5 h, 5 mg/kg P.O., AII 0.05 mcg/kg IV, 30 min post dose
# [36] = 0.5 h, 5 mg/kg P.O., AII 0.1 mcg/kg IV, 30 min post dose
# [37] = 1 h, 5 mg/kg P.O., AII 0.05 mcg/kg IV, 60 min post dose
# [38] = 1 h, 5 mg/kg P.O., AII 0.1 mcg/kg IV, 60 min post dose
# [39] = 2 h, 5 mg/kg P.O., AII 0.05 mcg/kg IV, 120 min post dose
# [40] = 2 h, 5 mg/kg P.O., AII 0.1 mcg/kg IV, 120 min post dose
# [41] = 3 h, 5 mg/kg P.O., AII 0.05 mcg/kg IV, 180 min post dose
# [42] = 3 h, 5 mg/kg P.O., AII 0.1 mcg/kg IV, 180 min post dose
# [43] = 4 h, 5 mg/kg P.O., AII 0.05 mcg/kg IV, 240 min post dose
# [44] = 4 h, 5 mg/kg P.O., AII 0.1 mcg/kg IV, 240 min post dose
# [45] = 5 h, 5 mg/kg P.O., AII 0.05 mcg/kg IV, 300 min post dose
# [46] = 5 h, 5 mg/kg P.O., AII 0.1 mcg/kg IV, 300 min post dose
# [47] = […], 5 mg/kg P.O., AII 0.05 mcg/kg IV, 90 min post dose
# [48] = […], 5 mg/kg P.O., AII 0.1 mcg/kg IV, 90 min post dose
structure (smiles),measurement,setting,value
"CCCCc1nc2ccc([C@@H]3C[C@H]4CCCN4O3)cc2c(=O)n1Cc1ccc(-c2ccccc2-c2nnn[nH]2)cc1 (racemic) [Example 57, Cis-(+/-)-2-Butyl-6-(hexahydropyrrolo[1,2-b]isoxazol-2-yl)-3-[[2'-(1H-tetrazol-5-yl)[1,1'-biphenyl]-4-yl]methyl]-4(3H)-quinazolinone]",Response Average Change,[1],12.5 mmHg
same,Response Average Change,[2],22.5 mmHg
same,Response Average Change,[3],20 mmHg
same,Response Average Change,[4],17.5 mmHg
same,Response Average Change,[5],36 mmHg
same,Response Average Change,[6],7.5 mmHg
same,Response Average Change,[7],15 mmHg
same,Response Average Change,[8],20 mmHg
same,Response Average Change,[9],37.5 mmHg
same,Response Average Change,[10],44 mmHg
same,Response Average Change,[11],31.5 mmHg
same,Response Average Change,[12],25 mmHg
same,Response Average Change,[13],32.5 mmHg
same,Response Average Change,[14],20 mmHg
same,Response Average Change,[15],20 mmHg
same,Response Average Change,[16],20 mmHg
same,Response Average Change,[17],22.5 mmHg
same,Response Average Change,[18],22.5 mmHg
same,Response Average Change,[19],29 mmHg
same,Response Average Change,[20],29.5 mmHg
same,Response Average Change,[21],25 mmHg
same,Response Average Change,[22],41.5 mmHg
same,Response Average Change,[23],40 mmHg
same,Response Average Change,[24],42.5 mmHg
same,inhibition in vivo at 3 mg/kg,[25],67%
same,inhibition in vivo at 3 mg/kg,[26],81%
same,inhibition in vivo at 3 mg/kg,[27],40%
same,inhibition in vivo at 3 mg/kg,[28],63%
same,inhibition in vivo at 3 mg/kg,[29],57%
same,inhibition in vivo at 3 mg/kg,[30],17%
same,inhibition in vivo at 3 mg/kg,[31],11%
same,inhibition in vivo at 3 mg/kg,[32],2%
same,inhibition in vivo at 3 mg/kg,[33],47%
same,inhibition in vivo at 3 mg/kg,[34],50%
same,inhibition in vivo at 5 mg/kg,[35],26%
same,inhibition in vivo at 5 mg/kg,[36],47%
same,inhibition in vivo at 5 mg/kg,[37],41%
same,inhibition in vivo at 5 mg/kg,[38],32%
same,inhibition in vivo at 5 mg/kg,[39],53%
same,inhibition in vivo at 5 mg/kg,[40],41%
same,inhibition in vivo at 5 mg/kg,[41],53%
same,inhibition in vivo at 5 mg/kg,[42],2%
same,inhibition in vivo at 5 mg/kg,[43],53%
same,inhibition in vivo at 5 mg/kg,[44],6%
same,inhibition in vivo at 5 mg/kg,[45],47%
same,inhibition in vivo at 5 mg/kg,[46],0%
same,inhibition in vivo at 5 mg/kg,[47],24%
same,inhibition in vivo at 5 mg/kg,[48],31%
"CCCCc1nc2ccc([C@]3(C)C[C@@H]4CCCN4O3)cc2c(=O)n1Cc1ccc(-c2ccccc2-c2nnn[nH]2)cc1 (relative stereo) [Example 59, Trans-2-Butyl-6-(hexahydro-2-methylpyrrolo[1,2-b]isoxazol-2-yl)-3-[[2'-(1H-tetrazol-5-yl)[1,1'-biphenyl]-4-yl]methyl]-4(3H)-quinazolinone]",Response Average Change,[1],17.5 mmHg
same,Response Average Change,[2],9 mmHg
same,Response Average Change,[3],18.5 mmHg
same,Response Average Change,[4],9.5 mmHg
same,Response Average Change,[5],20 mmHg
same,Response Average Change,"3 mg/kg I.V., AII 0.05 mcg/kg IV, 240 min post dose",18.5 mmHg
same,Response Average Change,[6],21 mmHg
same,Response Average Change,[7],23.5 mmHg
same,Response Average Change,[8],17.5 mmHg
same,Response Average Change,[9],12.5 mmHg
same,Response Average Change,[10],22.5 mmHg
same,Response Average Change,"3 mg/kg I.V., AII 0.1 mcg/kg IV, 240 min post dose",27.5 mmHg
same,Response Average Change,[11],19 mmHg
same,Response Average Change,[12],12.5 mmHg
same,Response Average Change,[13],17.5 mmHg
same,Response Average Change,[14],24 mmHg
same,Response Average Change,[15],18.5 mmHg
same,Response Average Change,[16],12.5 mmHg
same,Response Average Change,[17],12.5 mmHg
same,Response Average Change,[18],22.5 mmHg
same,Response Average Change,[19],12.5 mmHg
same,Response Average Change,[20],17.5 mmHg
same,Response Average Change,[21],17.5 mmHg
same,Response Average Change,[22],14 mmHg
same,Response Average Change,[23],10 mmHg
same,Response Average Change,[24],10 mmHg
same,inhibition in vivo at 3 mg/kg,[25],49%
same,inhibition in vivo at 3 mg/kg,[26],49%
same,inhibition in vivo at 3 mg/kg,[27],74%
same,inhibition in vivo at 3 mg/kg,[28],43%
same,inhibition in vivo at 3 mg/kg,[29],72%
same,inhibition in vivo at 3 mg/kg,[30],70%
same,inhibition in vivo at 3 mg/kg,[31],41%
same,inhibition in vivo at 3 mg/kg,[32],45%
same,inhibition in vivo at 3 mg/kg,"4 h, 3 mg/kg I.V., AII 0.05 mcg/kg IV, 240 min post dose",46%
same,inhibition in vivo at 3 mg/kg,"4 h, 3 mg/kg I.V., AII 0.1 mcg/kg IV, 240 min post dose",33%
same,inhibition in vivo at 3 mg/kg,[33],46%
same,inhibition in vivo at 3 mg/kg,[34],57%
same,inhibition in vivo at 5 mg/kg,[35],49%
same,inhibition in vivo at 5 mg/kg,[36],49%
same,inhibition in vivo at 5 mg/kg,[37],67%
same,inhibition in vivo at 5 mg/kg,[38],72%
same,inhibition in vivo at 5 mg/kg,[39],36%
same,inhibition in vivo at 5 mg/kg,[40],60%
same,inhibition in vivo at 5 mg/kg,[41],51%
same,inhibition in vivo at 5 mg/kg,[42],68%
same,inhibition in vivo at 5 mg/kg,[43],67%
same,inhibition in vivo at 5 mg/kg,[44],77%
same,inhibition in vivo at 5 mg/kg,[45],67%
same,inhibition in vivo at 5 mg/kg,[46],77%
same,inhibition in vivo at 5 mg/kg,[47],53%
same,inhibition in vivo at 5 mg/kg,[48],60%
